Measurements published in patent US20110064721A1, “CATHEPSIN-D NEUROPROTECTION” (THE UAB RESEARCH FOUNDATION, priority 2007, published 2011).
“Also recorded” adds a separate entry of the source.

Columns and labels:
α-syn = test: Western blot of α-syn after CD co-transfection; type: cell-based, human; conditions: SHSY5Y cells, co-expression with α-syn-GFP
Procedure: (§1) Cell culture and transfection: The human neuroblastoma SHSY5Y cells were transfected in triplicate by vector alone, GFP-α-syn, pCMV-CD, or co-transfected by GFP-α-syn (or A53T, MOP, Y125A mutant α-syn) and pCMV-CD (or mutant CD) by Amaxa method as described by the vendor. Transfection efficiency was ˜80% as assessed by cells with or without GFP. Seventy-two (72) hours after transfection, cells were harvested. For chloroquine (10 μM) treatment, the chemicals were added 48 hours after transfection, cells were harvested […]. Live cells were counted by trypan blue exclusion. Relative cell survival was calculated as number of live cells after transfection by pCMV-CD and/or GFP-α-syn divided by live cells after transfection by vector alone. Elevated expression of α-syn or cathepsins was confirmed by Western blot analyses using whole cell extracts.
Western blot: Wildtype and CD−/− cortex (n≧3 each genotype) were homogenized in 10 volumes of ice-cold lyses buffer (50 mM Tris-HCl pH 7.4, 175 mM NaCl, 5 mM EDTA), sonicated for 10 seconds, add TritonX-100 to 1% and incubated for 30 minutes on ice. Homogenates were then centrifuges at 15,000 g for 15 min at 4° C. to separate supernatants (fractions soluble in 1% TritonX-100) and pellets (TritonX-100-insoluble fractions) as described in Giasson et al., Neuron 34:521-33 (2002). Pellets were resuspended in lyses buffer containing 2% SDS. […]

dopaminergic neurons = test: DA neurodegeneration analysis in α-syn transgenic worms; type: in vivo, C. elegans; conditions: for protection from α-syn-induced dopaminergic neurodegeneration: 7 day old worms overexpressing human cDNA with α-syn
Procedure: For the DA neurodegeneration analysis, strain UA54 [baEx45; Pdat-1::α-syn, Pddat-1::gfp, Pdat-1 j::CD, rol-6 (su1006)], UA90 [baEx69; Pdat-1::α-syn, Pdat-1j::CD D295R, rol-6 (su1006)], UA91 [baEx70; Pdat-1::α-syn, Pdat-1::CD F2291, rol-6 (su1006)], UA53 [baEx44; Pdat-1::α-syn, rol-6 (su1006)], and UA55 [baEx46; Pdat-1::α-syn, Pdat-1::CL, rol-6 (su1006)] were generated by injecting 50 μg/ml of expression plasmid containing the human cathepsin cDNA and 50 μg/ml of rol-6 into an integrated line of UA44 [baInl1; Pdat-1::α-syn, (Cao et al., J. Neurosci. 25:3801-12 (2005))]. Three stable lines were randomly selected for neurodegeneration analysis. The 6 anterior DA neurons (4 CEP and 2 ADE neurons) of 30 animals/trial were examined for neurodegeneration when the animals were 7 days old. 90 animals from each of three CD (or CD D295R, CD F229I, CB, and CL) transgenic lines were analyzed (3 lines×3 trials of 30 animals/trial=270 total animals scored).
It was further investigated whether human CD attenuates the loss of dopaminergic neurons in a C. elegans model of α-syn-induced neurodegeneration (Cooper et al., Science 313:324-8 (2006)).

SHSY5Y cells = test: Cell death/survival after transfection, trypan blue exclusion; type: cell-based, human
Procedure: as §1
Overexpression of CD is neuroprotective against α-syn toxicity in mammalian cells. Excessive α-syn induces neuron death in cell cultures, and in a variety of genetic and viral delivery based animal models. To examine the potential of elevating CD level as a means to reduce α-syn-induced cell death, human neuroblastoma SHSY5Y cells were transfected with α-syn, in the absence or presence of increased CD expression (FIG. 4B). Similar to previous studies of α-syn overexpression in yeast, worms and rat neurons, it was observed that overexpression of wildtype α-syn induced robust cell death in SHSY5Y cells.
α-syn point mutation at the major CD cleavage site results in resistance to CD neuroprotection. α-syn is rich in hydrophobic amino acids (52%) and is natively unfolded. CD has a known specificity in recognizing hydrophobic residues. Although α-syn contains many putative CD cleavage sites, the main cleavage occurs at A124-Y125 (Hossain et al., J. Alzheimers Dis. 3:577-584 (2001)). It was observed that CD is also protective against PD-causing mutant α-syn induced-cell death in SHSY5Y cells (FIG. 4D). […] Furthermore, CD is ineffective at attenuating chloroquine- or staurorosporine-induced cell death (FIG. 4D).

Substance	truncation/cleavage of α-syn-GFP (α-syn)	protection from α-syn-induced dopaminergic neurodegeneration (dopaminergic neurons)	percentage of worms exhibiting the wildtype neuronal complement of all 6 anterior DA neurons (dopaminergic neurons; 7 day old worms overexpressing α-syn in DA neurons, n=270, α-syn alone 15-16%) [%]	staurosporine-induced cell death (SHSY5Y cells; 2 μM staurosporine)	chloroquine-induced cell death (SHSY5Y cells; 10 μM chloroquine)	A30P mutant α-syn-induced cell death (SHSY5Y cells; co-transfection with A30P mutant α-syn)	A53T mutant α-syn-induced cell death (SHSY5Y cells; co-transfection with A53T mutant α-syn)	Y125A mutant α-syn-induced cell death (SHSY5Y cells; co-transfection with Y125A mutant α-syn (CD cleavage site))	protection against α-syn overexpression-induced cell death (SHSY5Y cells; wildtype GFP-α-syn co-transfection, 72 hours, viable cells by trypan blue)
CD: principal lysosomal aspartate protease; human CD overexpressed by transfection or transgene (pCMV-CD)	produced a cleavage product of α-syn-GFP; also recorded: resulted in truncation of α-syn-GFP	significantly protected against dopaminergic neurodegeneration; also recorded: protects worms from neurodegeneration	30	ineffective; also recorded: does not reduce	ineffective; also recorded: does not reduce	protective; also recorded: reduced	protective; also recorded: reduced	resists neuroprotection by elevated CD; also recorded: does not reduce	provided significant protection; also recorded: protected against α-syn overexpression-induced cell death
CL: related human cathepsin gene product, representative lysosomal cysteine protease, overexpressed in worms	–	did not attenuate dopaminergic neuron death; also recorded: did not have the same effect as the wildtype CD	–	–	–	–	–	–	–
D295R: enzymatic mutant of CD, human cDNA overexpressed in transgenic worms	–	did not attenuate dopaminergic neuron death; also recorded: did not have the same effect as the wildtype CD	–	–	–	–	–	–	–
